One data set concerns 荷人NCI-H157裸鼠肺癌模型. Also on record: species or system BALB/c裸鼠. The settings on record: in vivo. As to the method: 将NCI-H157细胞株培养至对数生长期，弃去培养液，PBS清洗2次，0.25%胰酶消化，收集细胞，离心，生理盐水重悬并计数。无菌条件下，每只裸鼠右后肢背部皮下注射6×10^6个/200 μL的NCI-H157细胞悬液。裸鼠置于天津市实验动物中心SPF级动物房饲养，当肿瘤长径达0.6 cm-1.0 cm时进行实验(约30 d)。 将荷瘤裸鼠随机分成5组(0.5 h、1 h、2 h、4 h和8 h)，每组5只，分别尾静脉注射3.7 MBq/100 μL的^99mTc-T7溶液，注射后分别在0.5 h、1 h、2 h、4 h和8 h股动脉放血处死，分别取心、肝、脾、肺、肾、肌肉、骨骼、脑、肿瘤、小肠、胃，称湿重，测量γ计数，计算各脏器的每克组织注射剂量百分比(%ID/g)并分析肿瘤/非肿瘤(T/NT)比值。

The format of data set [1] is in vitro ADME, human. As to the method:
薄层色谱法检测标记率及放化纯度，以硅胶板为固定相，丙酮作为展开系统，毛细管点样，放射性γ计数器进行检测。稳定性检测:取500 μL的^99mTc-T7溶液分别加入1 mL的生理盐水和1 mL人血清中，37 ℃孵育8 h，用薄层色谱法检测放化纯度。

Consider one sequence from publication PMC6019362, “^99mTc标记T7肽及其在裸鼠非小细胞肺癌模型体内的生物分布研究” (Chinese Journal of Lung Cancer, 2014).

As for “TMPFLFCNVNDVCNFASRNDYSKKK [^99mTc-T7, 羰基锝法标记的肿瘤抑素T7肽, ^99mTc(CO)3^+ labelled 25-mer, integrin αvβ3 targeted imaging probe]”, in the data set with 荷人NCI-H157裸鼠肺癌模型, the “肿瘤/肌肉放射性比值 (T/NT)” value was more than 5 and the “血脑屏障通过 (blood-brain barrier passage)” value was “不能正常通过血脑屏障”. Besides, in the data set on 荷人NCI-H157裸鼠肺癌模型 (mouse, iv, 3.7 MBq, 8 h), the “8 h血放射性摄取值 (%ID/g) 相对于0.5 h” value came to 26%. Also, the “放化纯 (radiochemical purity) after incubation” value in data set [1] is on record as more than 90%.
